Tests used:
PARP-1 = target: T1, PARP-1 (Homo sapiens, UniProt P09874); experiment: PARP-1 inhibitory activity, HT universal colorimetric PARP assay kit (Trevigen); format: biochemical; settings: estimation as calculated from a 4 point dose response curve; read-out: PARP-1 activity in vitro IC50
T1 construct: purchased Trevigen
Method: The compounds were tested for PARP-1 inhibitory activity by using HT universal colorimetric PARP assay kit obtained from Trevigen, following manufacturer's protocol.

[1] = tested on: SW620 colorectal tumor cells (xenograft tumors); experiment: In vivo antitumor efficacy in combination with temozolomide (TMZ) in an SW620 tumor model; design: species or system Female athymic nude mice; settings: for Tumor growth delay: time to RTV4 treated minus control
Method: On basis of the in vitro data, the ability of selected compounds to potentiate the antitumor activity of the methylating chemotherapeutic agent, temozolomide, was evaluated in an SW 620 tumor model.
Animals bearing SW 620 xenograft tumors were treated with the compounds in combination with TMZ (50 mg/Kg, po) once daily for 5 consecutive days, after which the tumors were left to grow out.
Female athymic nude mice were used for antitumor in vivo studies. SW620 colorectal tumor cells (1×10^7 cells per animal) were implanted s.c. into one flank of each mouse. When tumors were palpable (10-12 days after implantation), animals were treated (n=6-8/group) with five daily doses of temozolomide administered per os as a suspension in 0.5% methyl cellulose at 50 mg/kg either alone or in combination with a five daily per os administrations of PARP inhibitor at different doses. Tumor growths were measured using two-dimensional caliper measurements. Tumor volume was calculated using the equation a^2×b/2, where a is the smallest measurement and b is the largest. Data are presented as median relative tumor volumes (RTV), defined as the calculated tumor volume divided by the calculated tumor volume on the initial day of treatment (day 0). Thus, on day 0, the RTV value is 1 and RTV4 is when the tumor is four times as large as its initial value. Control animals were treated with vehicle ([…] in methyl cellulose) alone tumor growth delay (TGD)=Time to RTV4 in treated group−time to RTV4 control.

[2] = compound 10 mg/kg, po + TMZ 50 mg/kg, once daily for 5 days, compound 45 min before TMZ
[3] = compound 10 mg/kg, po + TMZ 50 mg/kg, once daily for 5 days

T1 sequence (P09874 whole entry): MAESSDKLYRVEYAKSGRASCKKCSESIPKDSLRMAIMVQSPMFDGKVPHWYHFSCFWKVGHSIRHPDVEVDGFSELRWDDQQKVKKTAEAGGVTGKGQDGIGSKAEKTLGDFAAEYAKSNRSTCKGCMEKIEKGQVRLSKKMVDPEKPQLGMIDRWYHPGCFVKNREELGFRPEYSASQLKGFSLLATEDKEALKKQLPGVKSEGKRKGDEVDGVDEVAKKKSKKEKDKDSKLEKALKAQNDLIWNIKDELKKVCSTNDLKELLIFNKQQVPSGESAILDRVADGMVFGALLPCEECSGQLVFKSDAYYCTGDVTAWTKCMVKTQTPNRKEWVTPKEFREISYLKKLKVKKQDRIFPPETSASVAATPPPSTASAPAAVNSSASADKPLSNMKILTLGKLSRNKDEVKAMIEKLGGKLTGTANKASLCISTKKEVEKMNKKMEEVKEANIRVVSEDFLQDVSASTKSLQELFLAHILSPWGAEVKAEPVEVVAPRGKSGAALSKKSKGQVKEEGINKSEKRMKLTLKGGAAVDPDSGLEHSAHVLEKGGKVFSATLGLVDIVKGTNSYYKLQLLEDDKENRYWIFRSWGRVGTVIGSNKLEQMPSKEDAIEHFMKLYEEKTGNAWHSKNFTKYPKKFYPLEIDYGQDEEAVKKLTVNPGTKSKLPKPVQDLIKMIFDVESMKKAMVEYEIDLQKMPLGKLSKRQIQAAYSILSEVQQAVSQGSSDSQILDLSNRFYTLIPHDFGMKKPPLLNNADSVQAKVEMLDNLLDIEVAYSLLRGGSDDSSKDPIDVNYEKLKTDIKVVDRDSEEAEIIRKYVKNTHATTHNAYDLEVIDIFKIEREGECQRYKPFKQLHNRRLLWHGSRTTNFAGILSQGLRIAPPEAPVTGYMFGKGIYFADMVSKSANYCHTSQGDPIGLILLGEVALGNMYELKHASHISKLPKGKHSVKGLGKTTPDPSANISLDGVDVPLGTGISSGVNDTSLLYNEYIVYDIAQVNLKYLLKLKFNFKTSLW

In the case of `Cn1ncc2c1CN(C(=O)c1cc(Cc3n[nH]c(=O)c4ccccc34)ccc1F)C2` [Compound 36], the IC50 (PARP-1) is reported as 27.9 nM, the “Median time to RTV4” value [1, 2] is reported as 37 days and the “Tumor growth delay” value [1, 3] is reported as 27 days. For the same compound, the “Median time to RTV4” value ([1]; compound 30 mg/kg, po + TMZ 50 mg/kg, once daily for 5 days, compound 45 min before TMZ) was 44 days, the “Tumor growth delay” value ([1]; compound 30 mg/kg, po + TMZ 50 mg/kg, once daily for 5 days) was 34 days and the “Median time to RTV4” value ([1]; compound 100 mg/kg, po + TMZ 50 mg/kg, once daily for 5 days, compound 45 min before TMZ) was 65 days. For the same compound, the “Tumor growth delay” value ([1]; compound 100 mg/kg, po + TMZ 50 mg/kg, once daily for 5 days) was 55 days.
`O=C(c1cc(Cc2n[nH]c(=O)c3ccccc23)ccc1F)N1Cc2cocc2C1` [Compound 20, 4-(3-(5,6-dihydro-4H-furo[3,4-c]pyrrole-5-carbonyl)-4-fluorobenzyl)phthalazin-1(2H)-one] was tested, and the IC50 (PARP-1) was 11.8 nM, the “Median time to RTV4” value ([1]; compound 50 mg/kg, po + TMZ 50 mg/kg, once daily for 5 days, compound 45 min before TMZ) was 43 days and the “Tumor growth delay” value ([1]; compound 50 mg/kg, po + TMZ 50 mg/kg, once daily for 5 days) was 33 days.
For `Cn1cc2c(n1)CN(C(=O)c1cc(Cc3n[nH]c(=O)c4ccccc34)ccc1F)C2` [Compound 35, 4-(4-fluoro-3-(2-methyl-2,4,5,6-tetrahydropyrrolo[3,4-c]pyrazole-5-carbonyl)benzyl) phthalazin-1(2H)-one], the IC50 (PARP-1) was 29.9 nM, the “Median time to RTV4” value [1, 2] was 50 days and the “Tumor growth delay” value [1, 3] was 40 days.
In the case of `Cn1nnc2c(C(N)=O)ncn2c1=O` [Temozolomide, reference compound], the “Median time to RTV4” value ([1]; Temozolomide alone 50 mg/kg, po, once daily for 5 consecutive days) is reported as 22 days and the “Tumor growth delay” value ([1]; Temozolomide alone 50 mg/kg, po, once daily for 5 days) is reported as 12 days.
`CN1CC2CN(C(=O)c3cc(Cc4n[nH]c(=O)c5ccccc45)ccc3F)CC2C1` (stereo not drawn) [Compound 21, 4-(4-fluoro-3-(5-methyloctahydropyrrolo[3,4-c]pyrrole-2-carbonyl)benzyl)phthalazin-1(2H)-one] showed an IC50 (PARP-1) of 22.6 nM.
Work on `O=C(c1cc(Cc2n[nH]c(=O)c3ccccc23)ccc1F)N1Cc2cn[nH]c2C1` [Compound 3, 4-(4-fluoro-3-(1,4,5,6-tetrahydropyrrolo[3,4-c]pyrazole-5-carbonyl)benzyl) phthalazin-1 (2H)-one] yielded an IC50 (PARP-1) of 14.6 nM.
`O=C(c1cc(Cc2n[nH]c(=O)c3ccccc23)ccc1F)N1CC2CN(Cc3ccccc3)CC2C1` (single isomer, unassigned) [Compound 1, 4-(3-(5-benzyloctahydropyrrolo[3,4-c]pyrrole-2-carbonyl)-4-fluorobenzyl)phthalazin-1(2H)-one] was tested, and the IC50 (PARP-1) was 11.5 nM.

Reference: patent US9598418B2, “Substituted phthalazin-1 (2H)-one derivatives as selective inhibitors of poly (ADP-ribose) polymerase-1” (CADILA HEALTHCARE LIMITED, priority 2012, dated 2017)
